Experimental data taken from PMC6273954, “Antileishmanial Activity and Structure-Activity Relationship of Triazolic Compounds Derived from the Neolignans Grandisin, Veraguensin, and Machilin G” (Molecules, 2016).
In brackets after ≈: the same amount, converted by molar mass. Read-outs that look alike come from different tables or passages of the source.

Columns and labels:
[1] = tested on: L. (L.) amazonensis intracellular amastigotes; assay: In vitro antileishmanial activity on intracellular amastigotes in peritoneal macrophages; assay type: cell-based, Leishmania (Leishmania) amazonensis; design: key to activity class against intracellular amastigotes: active (<20 µM); moderately active (20–50 µM); potentially inactive (>50 µM); details: for IC50: Leishmania amazonensis, Peritoneal macrophage; for concentration from which infection index was significantly decreased / effect on infection index: versus untreated cells
Procedure: In vitro antileishmanial activity was evaluated on peritoneal macrophages infected with. L. (L.) amazonensis intracellular amastigotes. Parasites (IFLA/BR/1967/PH8 strain) were routinely isolated from BALB/c mice and maintained as promastigotes at 25 °C in Schneider's Insect Medium (Sigma-Aldrich®, St. Louis, MO, USA) supplemented with 20% fetal calf serum (FCS-Cultilab® Campinas, Brazil) and 140 μg·mL^-1 gentamicin (Sigma-Aldrich®). Macrophages were obtained from peritoneal wash of BALB/c mice after euthanasia. 10 mL of RPMI 1640 (Sigma-Aldrich®) supplemented with 2% L-glutamine, 2.8% bicarbonate buffer, 100 U·mL^-1 penicillin and […] streptomycin were injected into the peritoneal cavity. After massage area, liquid was aspirated and transferred to tubes on ice. Peritoneal cells were quantified in Neubauer chamber after cellular exclusion with Trypan Blue staining (Sigma-Aldrich®). Peritoneal cells (1 × 10^5 cells/well) were added to 24-well plates containing circular coverslips. Plates were incubated for one hour at 37 °C/5% CO2 to allow cell adhesion and then 1 × 10^6 L. (L.) amazonensis promastigotes were added to each well. Plates were incubated at 35 °C/5% CO2 for four hours and then cells were treated for 24 h with synthetic compounds 4-19 (6.25-50 μg·mL^-1). Amphotericin B (Sigma-Aldrich®) was used as the reference drug (0.25 to 2 μg·mL^-1) and untreated cells were used as negative control. Coverslips were processed as described by Rizk et al.. The overall number of amastigotes was determined by counting 100 cells in six replicates. The half maximal inhibitory concentration (IC50) was calculated using a nonlinear regression curve. Infection index was obtained as described by […] et al..

J774.A1 cells = assay: Cytotoxicity assay (sulforhodamine B); assay type: cell-based, murine; details: for SI (selectivity index): IC50 on mammalian cells/IC50 on intracellular amastigotes; for IC50: Mus musculus, J774.A1, murine macrophages, 48 h, sulforhodamine B; for cytotoxicity on mammalian cells: J774.A1 macrophages
Procedure: Amphotericin B (Sigma-Aldrich®) was used as the reference drug (0.025–25 µg·mL^−1). Cell growth was evaluated according to Skehan et al. using the sulforhodamine B assay. Dimethyl sulfoxide (DMSO, Vetec®, Rio de Janeiro, Brazil) was used as negative control at the concentration used to solubilize the highest concentration of compounds. IC50 was calculated by nonlinear regression curve. Selectivity index was calculated according to Medeiros et al..

[2] = tested on: L. amazonensis infected macrophages; assay: Nitric oxide production by infected and treated peritoneal cells (Griess); assay type: cell-based, BALB/c mice
Procedure: To evaluate the nitric oxide production (NO) by infected and treated peritoneal cells, 50 µL of culture supernatant from the antileishmanial assay were collected and incubated with equal volume of Griess reagent (1% sulfanilamide /0.1% naphthalene diamine in 5% phosphoric acid) for 10 min at room temperature. According to Ding et al., the absorbance was determined at 540 nm and converted to NO2^− (µM) by comparing to a standard curve of known concentrations of sodium nitrite (1–10 µM) in RPMI medium (Sigma-Aldrich®).

[3] = tested on: L. (L.) amazonensis promastigotes; details: cited from earlier work
[4] = tested on: L. donovani promastigote forms; design: method as in PMID 18688887; details: cited from earlier work
[5] = in Mus musculus, infected BALB/c peritoneal macrophages, treated 24 h, read-out: Intracellular Amastigotes IC50
[6] = classified by IC50 according to Upegui et al.
[7] = at the highest concentration(s) tested, compared to control
[8] = 24 h, classified by IC50 according to Upegui et al., read-out: activity class against intracellular amastigotes
[9] = 24 h after treatment, compared to untreated infected cells (control)
[10] = at the lowest concentrations tested, compared to control
[11] = highest reduction reached / at the highest concentration, 24 h after treatment

| Structure (SMILES) | IC50 [1, 5] [µM] | SI (selectivity index) (J774.A1 cells) | IC50 (J774.A1 cells) [µM] | activity class against intracellular amastigotes [1, 6] | IC50 [1, 8] [µM] | nitric oxide (NO) production [2, 9] | also measured |
| --- | --- | --- | --- | --- | --- | --- | --- |
| C[C@@H]1[C@H](O)[C@@H](C)/C=C/C=C/C=C/C=C/C=C/C=C/C=C/[C@H](O[C@@H]2O[C@H](C)[C@@H](O)[C@H](N)[C@@H]2O)C[C@@H]2O[C@](O)(C[C@@H](O)C[C@@H](O)[C@H](O)CC[C@@H](O)C[C@@H](O)CC(=O)O[C@H]1C)C[C@H](O)[C@H]2C(=O)O [Amphotericin B, reference compound] | 0.7 | 3.1 | 2.2 | – | – | – | – |
| COc1ccc(-c2cn(-c3ccc(OC)cc3)nn2)cc1 [Compound 4] | 13.1 | 66.9 | 877 | active | – | – | nitric oxide (NO) production [2, 7]: increase of NO production |
| COc1ccc(-c2cn(-c3ccc(OC)c(OC)c3)nn2)cc1OC [Compound 5] | 21.3 | 3.6 | 76.4 | – | 20 to 50 | – | concentration from which infection index was significantly decreased ([1]; 24 h after treatment): 12.5 µg/mL; nitric oxide (NO) production ([2]; at 25 µg·mL−1, compared to control): lower than control |
| COc1cc(-c2cn(-c3cc(OC)c(OC)c(OC)c3)nn2)cc(OC)c1OC [Compound 6] | 9.4 | >66.2 | > 623 | active | – | increased production of nitric oxide | concentration from which infection index was significantly decreased ([1]; 24 h after treatment): 6.25 µg/mL; reduction of infection index ([1]; at 50 µg·mL−1, 24 h after treatment): 98.6%; activity on promastigote forms [3]: inactive on promastigote forms |
| c1cc2c(cc1-c1cn(-c3ccc4c(c3)OCO4)nn1)OCO2 [Compound 7] | 20.4 | 4.2 | 86.2 | – | 20 to 50 | – | – |
| COc1ccc(-c2cn(-c3ccc(OC)c(OC)c3)nn2)cc1 [Compound 8] | 16 | 4.9 | 79.2 | active | – | – | – |
| COc1ccc(-n2cc(-c3ccc(OC)c(OC)c3)nn2)cc1 [Compound 9] | 18.3 | 1.2 | 22.6 | active | – | – | – |
| COc1ccc(-c2cn(-c3cc(OC)c(OC)c(OC)c3)nn2)cc1 [Compound 10] | 16.8 | 3.9 | 65.4 | active | – | – | – |
| COc1ccc(-n2cc(-c3cc(OC)c(OC)c(OC)c3)nn2)cc1 [Compound 11] | 16.5 | 4.1 | 67.5 | active | – | – | nitric oxide (NO) production [2, 7]: higher than control; nitric oxide (NO) production [2, 10]: lower than untreated cells |
| COc1ccc(-c2cn(-c3ccc4c(c3)OCO4)nn2)cc1 [Compound 12] | 14.8 | 6.5 | 96.5 | active | – | increase in NO production | nitric oxide (NO) production [2, 7]: increase of NO production |
| COc1ccc(-n2cc(-c3ccc4c(c3)OCO4)nn2)cc1 [Compound 13] | 50.7 | 2.6 | 135 | did not show potential activity | – | increase in NO production | – |
| COc1ccc(-c2cn(-c3cc(OC)c(OC)c(OC)c3)nn2)cc1OC [Compound 14] | 5.6 | 14.1 | 79.1 | active | – | induced nitric oxide production | effect on infection index ([1]; 24 h after treatment): reduced the infection index at all concentrations tested; reduction of infection index [1, 11]: 86.4%; cytotoxicity on mammalian cells (J774.A1 cells): low cytotoxicity on mammalian cells; nitric oxide (NO) production [2, 10]: significantly induced NO production |
| COc1ccc(-n2cc(-c3cc(OC)c(OC)c(OC)c3)nn2)cc1OC [Compound 15] | 29.2 | 2.6 | 76.9 | – | 20 to 50 | – | – |
| COc1ccc(-c2cn(-c3ccc4c(c3)OCO4)nn2)cc1OC [Compound 16] | 32.7 | >23.5 | > 768 | – | 20 to 50 | significantly induce NO production | – |
| COc1ccc(-n2cc(-c3ccc4c(c3)OCO4)nn2)cc1OC [Compound 17] | 29.9 | 0.3 | 9.2 | – | 20 to 50 | – | cytotoxicity on mammalian cells (J774.A1 cells): toxic for the macrophages |
| COc1cc(-c2cn(-c3ccc4c(c3)OCO4)nn2)cc(OC)c1OC [Compound 18] | 29.8 | 2.2 | 66.9 | – | 20 to 50 | did not induce a significant production of NO | reduction of infection index [1, 11]: 92.1% |
| COc1cc(-n2cc(-c3ccc4c(c3)OCO4)nn2)cc(OC)c1OC [Compound 19] | 4.4 | 10.6 | 46.9 | active | – | induced nitric oxide production | effect on infection index ([1]; 24 h after treatment): significantly reduced the infection index; cytotoxicity on mammalian cells (J774.A1 cells): low cytotoxicity on mammalian cells; nitric oxide (NO) production [2, 7]: twice as high than control; IC50 ([3]; read-out: IC50 against L. (L.) amazonensis promastigote forms): 7.2 µM |
| COc1cccc2c1C(=O)c1c(O)c3c(c(O)c1C2=O)C[C@@](O)(C(=O)CO)C[C@@H]3O[C@H]1C[C@H](N)[C@H](O)[C@H](C)O1 [Doxorubicin, reference compound] | – | – | 0.5 | – | – | – | – |
| COc1cc([C@@H]2O[C@@H](c3cc(OC)c(OC)c(OC)c3)[C@H](C)[C@H]2C)cc(OC)c1OC [grandisin] | – | – | – | – | – | – | IC50 on L. (L.) amazonensis promastigotes [3]: 42.4 µg/mL (≈ 98 µM); IC50 ([3]; read-out: IC50 on L. (L.) amazonensis promastigotes): 98 µM |
| COc1ccc([C@H]2O[C@@H](c3ccc(OC)c(OC)c3)[C@H](C)[C@H]2C)cc1OC [veraguensin] | – | – | – | – | – | – | IC50 [4]: 48.3 µM; activity on L. donovani promastigote forms [4]: 18 µg/mL |
